Test results: the supplement of paper PMC10307832

Tests used:
Test in all cases: relative viability (nuclei count vs DMSO), 5 days (fraction); higher = more cells survive
DM3189 + Navitoclax = compound: C1CN(CCN1)C2=CC=C(C=C2)C3=CN4C(=C(C=N4)C5=CC=NC6=CC=CC=C56)N=C3 [DM3189] + CC1(C)CCC(c2ccc(Cl)cc2)=C(CN2CCN(c3ccc(C(=O)NS(=O)(=O)c4ccc(N[C@H](CCN5CCOCC5)CSc5ccccc5)c(S(=O)(=O)C(F)(F)F)c4)cc3)CC2)C1 [Navitoclax] (partner 0.5 µM)
How it was run: (§1)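 Each reported value is a median over duplicate plates. It expresses relative viability: treated-well nuclei count divided by vehicle-well nuclei count. Lung cancer cell lines in 1536-well plates were dosed by pin tool a day after seeding, alone with one drug or with a fixed anchor-drug dose plus five library-drug doses (not always all listed) in √10 steps, and nuclei were counted after 5 days.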

DM3189 + Foretinib = compound: C1CN(CCN1)C2=CC=C(C=C2)C3=CN4C(=C(C=N4)C5=CC=NC6=CC=CC=C56)N=C3 [DM3189] + COc1cc2c(Oc3ccc(NC(=O)C4(C(=O)Nc5ccc(F)cc5)CC4)cc3F)ccnc2cc1OCCCN1CCOCC1 [Foretinib] (partner 0.25 µM)
How it was run: as §1

DM3189 + Dasatinib = compound: C1CN(CCN1)C2=CC=C(C=C2)C3=CN4C(=C(C=N4)C5=CC=NC6=CC=CC=C56)N=C3 [DM3189] + Cc1nc(Nc2ncc(C(=O)Nc3c(C)cccc3Cl)s2)cc(N2CCN(CCO)CC2)n1 [Dasatinib] (partner 0.075 µM)
How it was run: as §1

DM3189 + Decitabine = compound: C1CN(CCN1)C2=CC=C(C=C2)C3=CN4C(=C(C=N4)C5=CC=NC6=CC=CC=C56)N=C3 [DM3189] + Nc1ncn([C@H]2C[C@H](O)[C@@H](CO)O2)c(=O)n1 [Decitabine] (partner 2 µM)
How it was run: as §1

DM3189 + Olaparib = compound: C1CN(CCN1)C2=CC=C(C=C2)C3=CN4C(=C(C=N4)C5=CC=NC6=CC=CC=C56)N=C3 [DM3189] + O=C(c1cc(Cc2n[nH]c(=O)c3ccccc23)ccc1F)N1CCN(C(=O)C2CC2)CC1 [Olaparib] (partner 8 µM)
How it was run: as §1

Cell Line	relative viability (DM3189 + Navitoclax; first compound 0.08 µM)	relative viability (DM3189 + Navitoclax; first compound 0.253 µM)	relative viability (DM3189 + Navitoclax; first compound 0.8 µM)	relative viability (DM3189 + Navitoclax; first compound 2.53 µM)	relative viability (DM3189 + Foretinib; first compound 0.08 µM)	relative viability (DM3189 + Foretinib; first compound 0.253 µM)	relative viability (DM3189 + Foretinib; first compound 0.8 µM)	relative viability (DM3189 + Foretinib; first compound 2.53 µM)	relative viability (DM3189 + Dasatinib; first compound 0.08 µM)	relative viability (DM3189 + Dasatinib; first compound 0.253 µM)	relative viability (DM3189 + Dasatinib; first compound 0.8 µM)	relative viability (DM3189 + Dasatinib; first compound 2.53 µM)	relative viability (DM3189 + Decitabine; first compound 0.08 µM)	relative viability (DM3189 + Decitabine; first compound 0.253 µM)	relative viability (DM3189 + Decitabine; first compound 0.8 µM)	relative viability (DM3189 + Decitabine; first compound 2.53 µM)	relative viability (DM3189 + Olaparib; first compound 0.08 µM)	relative viability (DM3189 + Olaparib; first compound 0.253 µM)	relative viability (DM3189 + Olaparib; first compound 0.8 µM)	relative viability (DM3189 + Olaparib; first compound 2.53 µM)
PC-14	1.04	1.03	1	1.08	1.02	0.985	0.876	1.07	0.295	0.239	0.159	0.16	0.303	0.237	0.21	0.253	0.277	0.238	0.264	0.226
NCI-H322M	1.33	1.25	1.28	1.52	0.942	0.944	0.886	0.774	0.268	0.251	0.235	0.218	0.628	0.683	0.767	0.696	0.938	0.793	0.743	0.768
SK-MES-1	1.21	1.28	1.08	1.18	0.849	0.701	0.698	0.76	0.322	0.263	0.265	0.237	0.461	0.418	0.317	0.361	0.679	0.546	0.594	0.348
NCI-H1944	1.07	1.03		1.15	0.93	0.81		0.88	0.232	0.217		0.219	0.42	0.467	0.384	0.455	0.385	0.405	0.35	0.378
LK-2	0.72	0.626	0.483	0.57	1.05	0.88	0.72	0.858	0.294	0.287	0.221	0.29	0.307	0.278	0.201	0.187	0.626	0.613	0.388	0.489
RERF-LC-KJ	0.997	1.35	0.81	1.09	1.03	0.904	0.927	0.97	1.03	0.891	0.744	0.943	0.754	0.615	0.757	0.618	0.942	0.889	0.823	0.833
COR-L23	1.09	0.961	0.893	1	1.12	0.844	0.828	0.993	0.543	0.525	0.458	0.525	0.424	0.39	0.348	0.434	0.439	0.264	0.245	0.303
NCI-H1355	0.926	0.953	0.819	0.951	0.987	0.968	0.91	0.979	0.788	0.706	0.474	0.633	0.337	0.39	0.345	0.37	0.723	0.687	0.689	0.785
NCI-H520	1	0.728	0.752	0.628	0.713	0.554	0.62	0.631	0.24	0.219	0.258	0.197	0.534	0.399	0.521	0.336	0.348	0.339	0.293	0.233
NCI-H2009	1.17	1.19	1.06	1.23	1.22	1.16	1.14	1.25	0.287	0.267	0.263	0.244	0.416	0.354	0.412	0.417	0.894	0.645	0.638	0.689
ChaGo-K-1	1.22	0.971	1.1	0.825	1.07	0.903	0.858	0.976	0.734	0.563	0.561	0.535	0.521	0.507	0.475	0.537	0.48	0.393	0.369	0.439
HCC-15	0.687	0.675	0.646	0.735	1.16	0.962	1	0.927	0.632	0.541	0.492	0.559	0.648	0.674	0.571	0.534	0.737	0.724	0.518	0.591
NCI-H2347	0.861	0.819	0.743	0.763	1.24	1.29	0.957	0.843	0.261	0.384	0.341	0.284	0.591	0.622	0.576	0.668	0.544	0.53	0.522	0.55
NCI-H1395	1.22	0.958	0.74	1.17	0.896	0.929	0.831	1.03	0.461	0.39	0.397	0.415	0.663	0.703		0.712	0.421	0.463		0.39
NCI-H1666	1.11	1.09	0.895	1.17	1.02	0.97	1.02	0.93	0.884	0.862	0.925	0.715	0.882	0.688	0.748	0.83	0.714	0.682	0.691	
